Where “and” joins values, the source holds several entries; their conditions need not be identical. Equal entries are not always repeated.
Legend:
Kir6.2*,C166S-GFP + SUR1 = Kir6.2*,C166S-GFP + SUR1 (Homo sapiens, UniProt Q14654, C166S); assay: FRET (ANAP quenching) nucleotide binding in unroofed membranes; set-up: ANAP labelling is specific and only full-length Kir6.2 is expressed at the cell membrane; expressed in transfected cells; host or cells: HEK-293T; settings: Hill fit
Text: (§1) To measure nucleotide binding, cells transfected with Kir6.2*-GFP + SUR1 were briefly sonicated, leaving behind unroofed plasma membrane fragments ([Heuser, 2000]; [Zagotta et al., 2016]; [Puljung et al., 2019]) containing ANAP-labelled KATP channels with the intracellular nucleotide-binding sites exposed to the bath solution. The sample was excited with a 385 nm LED and emitted fluorescence from the membrane fragments was passed through a spectrometer, allowing us to separate ANAP, GFP, and TNP-ATP fluorescence by peak wavelength (Figure 1E,F). As expected from FRET, increasing the concentration of TNP-ATP caused a decrement in the ANAP peak at 472 nm and a concomitant increase in the TNP-ATP peak at 561 nm (Figure 1F). We used the quenching of the ANAP peak as a direct measure of TNP-ATP binding as this signal was specific to KATP. In contrast, the peak TNP-ATP fluorescence may include contributions from both specific and non-specific nucleotide binding, as well as direct excitation of TNP-ATP in solution by the 385 nm excitation light. Due to the sharp cut-off of the GFP emission spectrum at shorter wavelengths, our measurements of peak ANAP fluorescence were unaffected by the presence of the GFP tag on Kir6.2.
(§2) Epifluorescence imaging and spectroscopy were performed using a Nikon Eclipse TE2000-U microscope with a 60x water immersion objective (Plan Apo VC, NA = 1.2, Nikon; Kingston upon Thames, UK) or a 100x oil immersion objective (Nikon, Apo TIRF, NA = 1.49). […] Fluorescence spectra were collected by exciting ANAP as above but using a 400 nm long-pass emission filter (ThorLabs), then passing emitted light through an IsoPlane 160 Spectrometer (Princeton Instruments; Trenton, NJ) with a 300 grooves mm^-1 grating. […]
(§3) Unroofed membranes were prepared as described previously ([Heuser, 2000]; [Zagotta et al., 2016]; [Puljung et al., 2019]). […] Unroofed membrane fragments were nearly invisible in bright-field images and identified by their GFP and ANAP fluorescence. […]
Fluorescence spectra were collected as described above. […]

Kir6.2-GFP (no SUR1) = target: T1, Kir6.2-GFP (no SUR1) (Homo sapiens, UniProt Q14654); assay: as above
T1 construct: ANAP labelling is specific and only full-length Kir6.2 is expressed at the cell membrane; expressed in transfected cells; host or cells: HEK-293T
T1 sequence (Q14654 1-390): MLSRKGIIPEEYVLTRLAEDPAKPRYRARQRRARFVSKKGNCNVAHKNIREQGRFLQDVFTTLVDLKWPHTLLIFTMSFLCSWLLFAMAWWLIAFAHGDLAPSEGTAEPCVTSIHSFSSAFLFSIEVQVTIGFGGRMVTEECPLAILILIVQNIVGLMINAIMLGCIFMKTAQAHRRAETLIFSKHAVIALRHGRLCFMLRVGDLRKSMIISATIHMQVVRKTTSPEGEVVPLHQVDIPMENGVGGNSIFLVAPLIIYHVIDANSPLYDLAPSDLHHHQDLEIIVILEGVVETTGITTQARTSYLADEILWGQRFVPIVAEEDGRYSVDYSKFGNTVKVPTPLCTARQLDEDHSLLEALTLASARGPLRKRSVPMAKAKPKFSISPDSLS
Text: as §1
SUR1 plays a complex role in the regulation of Kir6.2. It increases the Popen of the channel and allows for the activation of the channel by Mg-nucleotides ([Nichols et al., 1996]; [Tucker et al., 1997]; [Babenko and Bryan, 2003]; [Chan, 2003]; [Fang et al., 2006]). However, it also increases the sensitivity of Kir6.2 to nucleotide inhibition ([Babenko and Bryan, 2003]; [Chan, 2003]; [Fang et al., 2006]). To understand the effect of SUR1 on nucleotide inhibition of KATP, we expressed Kir6.2*-GFP in the absence of SUR1 in unroofed membranes and measured TNP-ATP binding (Figure 4—figure supplement 1A). […] Unfortunately, we were unable to achieve high enough expression of Kir6.2*-GFP alone to carry out PCF experiments in the absence of SUR1. […]
as §2, §3

Kir6.2*,C166S-GFP + SUR1, sequence (Q14654 whole entry C166S, the tested form may be a part): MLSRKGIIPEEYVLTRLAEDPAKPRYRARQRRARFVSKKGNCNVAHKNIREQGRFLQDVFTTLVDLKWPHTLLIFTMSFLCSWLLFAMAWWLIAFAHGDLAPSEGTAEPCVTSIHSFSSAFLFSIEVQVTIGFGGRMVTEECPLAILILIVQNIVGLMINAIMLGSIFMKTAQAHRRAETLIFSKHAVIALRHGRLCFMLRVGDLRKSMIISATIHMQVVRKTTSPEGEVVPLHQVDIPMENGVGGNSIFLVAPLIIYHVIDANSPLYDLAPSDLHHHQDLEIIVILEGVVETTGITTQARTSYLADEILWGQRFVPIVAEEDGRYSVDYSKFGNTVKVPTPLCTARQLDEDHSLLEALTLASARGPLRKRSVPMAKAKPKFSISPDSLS
Kir6.2*,C166S-GFP + SUR1, sequence (Q09428 whole entry partner, the tested form may be a part): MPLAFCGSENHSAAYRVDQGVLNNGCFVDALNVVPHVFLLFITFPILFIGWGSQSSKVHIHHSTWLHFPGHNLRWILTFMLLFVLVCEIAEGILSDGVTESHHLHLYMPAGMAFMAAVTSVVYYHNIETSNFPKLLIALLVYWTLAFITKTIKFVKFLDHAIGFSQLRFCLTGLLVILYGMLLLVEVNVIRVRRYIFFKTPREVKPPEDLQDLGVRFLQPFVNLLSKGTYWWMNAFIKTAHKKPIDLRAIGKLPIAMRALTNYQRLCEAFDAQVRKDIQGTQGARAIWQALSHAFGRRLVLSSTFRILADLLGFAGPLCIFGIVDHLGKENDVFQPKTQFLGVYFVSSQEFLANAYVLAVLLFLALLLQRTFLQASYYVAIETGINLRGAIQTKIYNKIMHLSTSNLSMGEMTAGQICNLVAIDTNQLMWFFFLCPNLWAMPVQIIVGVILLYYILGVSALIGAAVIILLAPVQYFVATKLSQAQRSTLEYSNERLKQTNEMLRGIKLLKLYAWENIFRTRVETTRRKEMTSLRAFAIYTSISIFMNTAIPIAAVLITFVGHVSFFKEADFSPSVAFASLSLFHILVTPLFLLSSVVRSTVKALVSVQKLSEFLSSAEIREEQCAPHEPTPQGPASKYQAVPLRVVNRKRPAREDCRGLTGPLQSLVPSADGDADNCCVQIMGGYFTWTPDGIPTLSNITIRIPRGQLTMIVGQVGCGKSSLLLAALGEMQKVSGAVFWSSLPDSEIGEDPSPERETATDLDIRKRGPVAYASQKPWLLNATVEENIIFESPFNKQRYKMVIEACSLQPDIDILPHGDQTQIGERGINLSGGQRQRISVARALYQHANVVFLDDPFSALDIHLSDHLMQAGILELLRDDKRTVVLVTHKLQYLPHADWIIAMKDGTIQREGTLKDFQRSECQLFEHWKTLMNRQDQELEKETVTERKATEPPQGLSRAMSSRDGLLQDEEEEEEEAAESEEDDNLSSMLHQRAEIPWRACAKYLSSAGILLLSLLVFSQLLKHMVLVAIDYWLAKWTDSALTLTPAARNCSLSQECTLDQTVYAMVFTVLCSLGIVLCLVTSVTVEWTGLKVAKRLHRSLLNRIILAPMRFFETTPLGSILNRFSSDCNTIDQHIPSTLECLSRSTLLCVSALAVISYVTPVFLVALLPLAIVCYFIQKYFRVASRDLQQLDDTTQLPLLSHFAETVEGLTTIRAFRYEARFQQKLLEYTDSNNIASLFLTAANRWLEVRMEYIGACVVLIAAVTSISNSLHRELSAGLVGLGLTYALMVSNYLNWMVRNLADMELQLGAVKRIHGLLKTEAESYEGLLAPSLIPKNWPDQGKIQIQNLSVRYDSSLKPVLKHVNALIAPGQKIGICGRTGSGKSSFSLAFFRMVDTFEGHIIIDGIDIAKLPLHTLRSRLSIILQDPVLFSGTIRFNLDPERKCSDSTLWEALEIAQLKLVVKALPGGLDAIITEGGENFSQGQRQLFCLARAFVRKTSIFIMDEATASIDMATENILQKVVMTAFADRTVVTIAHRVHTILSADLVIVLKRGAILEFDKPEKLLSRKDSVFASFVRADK

`Nc1ncnc2c1ncn2[C@@H]1O[C@H](COP(=O)(O)OP(=O)(O)OP(=O)(O)O)[C@H]2OC3(O[C@H]21)C([N+](=O)[O-])=CC(=[N+]([O-])[O-])C=C3[N+](=O)[O-]` (stereo partly shown) [TNP-ATP, trinitrophenyl-ATP] was tested, and the “h (Hill coefficient) fluorescence quenching” value (Kir6.2*,C166S-GFP + SUR1) was 0.92, the Emax (Kir6.2*,C166S-GFP + SUR1; fraction, read-out: Emax fluorescence quenching) was 96% and the EC50 (Kir6.2*,C166S-GFP + SUR1; n = 12, read-out: EC50 fluorescence quenching) was 32 µM and 31.6 µM. For the same compound, the “increase in apparent EC50 compared to the same construct in the presence of SUR1” value (Kir6.2-GFP (no SUR1)) was “approximately 1.5 fold”, the “h (Hill coefficient) fluorescence quenching” value (Kir6.2-GFP (no SUR1); no SUR1, Hill fit) was 0.83 and the Emax (Kir6.2-GFP (no SUR1); no SUR1, Hill fit, fraction, read-out: Emax fluorescence quenching) was 92%. For the same compound, the EC50 (Kir6.2-GFP (no SUR1); no SUR1, Hill fit, n = 14, read-out: EC50 fluorescence quenching) was 37.6 µM and 38 µM.

Source: PMC7004565, “Nucleotide inhibition of the pancreatic ATP-sensitive K^+ channel explored with patch-clamp fluorometry” (eLife, 2020)
